# Assays:
# CD34+ cells = assay: Transwell migration assay toward SDF-1; assay type: cell-based, human; conditions: SDF-1, 2 hours
# Method: Migration assay. Transwell migration assays were performed on PGE2-modulated HSPCs compared to unmodulated HSPCs in the presence of 0 to 50 ng/ml SDF-1 (R&D Systems, Minneapolis, MN). In brief, cells were suspended in 0.5% BSA Phenol Red-Free RPMI and plated in the upper chambers of an HTS-Transwell-96-well permeable support plate (Corning, Acton, MA) and incubated at 37° C. in 5% CO2 for 2 hours. After 2 hours incubation, migrated cells were counted using BD TruCount (BD Biosciences) by flow cytometry.
# Prostaglandin library screening. PGE2 has been described as a small molecule known to enhance the homing and engraftment of HSPCs. It was therefore sought to screen all known types of prostaglandins using the Prostaglandin Screening Library II, which contains 64 small molecules. Each small molecule contained in the library was first screened for its capacity to upregulate PD-L1 in human CD34+ cells isolated from T1D patients (FIG. 17A-17B). CD34+ cells isolated from T1D patients were cultured in StemSpan SFEMII and pulsed with each PG (prostaglandin) small molecule contained in the aforementioned library at a concentration of 10 μM at 24 and 48h. Using FACS analysis, the MFI (mean fluorescence intensity) of PD-L1 expression was calculated following treatment with each small molecule used to modulate CD34+ cells as compared to untreated/unmodulated CD34+ cells (FIG. 17B). […]
# PD-L1 on CD34+ cells = assay: 7-day culture of CD34+ cells with PGE2 and hematopoietic cytokines (STFIA medium), PD-L1+CD34+ by FACS; assay type: cell-based, human; conditions: for increase in the percentage of PD-L1+CD34+ cells: 7 days, STFIA medium, PGE2 10 μM
# Method: FIGS. 18A-18J show effects of human PGE2-modulated and cytokine-treated CD34^+ cells. […] (FIG. 18C) Effect of PGE2 pulsing on CD34^+ cells cultured for 0, 24 h, 72 h and 6 days on PD-L1 expression on CD34^+ cells. (FIG. 18D-18E) Bar graphs showing an increase in the number of PD-L1^+CD34^+ cells and fold increase in cell number after 7 days of culture with PGE2 supplemented with cytokines. (FIG. 18F-18G) Upregulation of PD-L1 expression following culture with PGE2 (shown as percentage) on CD34^+ cells was not altered by the freeze/thawing process. (FIG. 18H) PGE2-modulated CD34^+ cells abrogate the IFN-γ autoimmune response to insulin-associated 2 (I-A2) autoantigen in vitro, as measured via the quantification of IFN-γ-producing cells in an Elispot assay; […]. (FIG. 18I) PGE2-modulated CD34^+ cells and PGE2-modulated CD34^+ cells cultured for 7 days in STFIA media abrogate the IFN-γ autoimmune response towards insulin-associated 2 (I-A2) autoantigen in vitro, as measured via the quantification of IFN-γ-producing cells in an Elispot assay, even when added at low dose. (FIG. 18J) PGE2-modulated CD34^+ cells abrogate the anti-CD3/CD28-stimulated PBMC response in vitro as measured via the quantification of IFN-γ-producing cells in an Elispot assay. […] Abbreviations: SCF, stem cell factor; TPO, thrombopoietin; hFGF-1, human fibroblast growth factor 1; IGFBP2, insulin-like growth factor-binding protein 2; Angptl3, angiopoietin-like 3; PBMCs, peripheral blood mononuclear cells.
# Pharmacological modulation of human CD34+ cells. […] Data were analyzed using FlowJo software version 8.7.3 (Treestar, Ashland, OR). […]
# PGE2 highly augments PD-L1 expression in human HSPCs when supplemented with hematopoietic cytokine. […] PD-L1+ HSPCs were then quantified by FACS analysis at different time points post-culture. […]
compound,measurement,setting,value
"CCCCC[C@H](O)/C=C/[C@H]1[C@H](O)CC(=O)[C@@H]1C/C=C\CCCC(=O)O [PGE2, prostaglandin E2]",homing potential in migration assay,CD34+ cells,substantial increase
same,increase in the percentage of PD-L1+CD34+ cells,PD-L1 on CD34+ cells; HSPCs from T1D,~5 fold
same,PD-L1 expression pre- and post-cryopreservation,"PD-L1 on CD34+ cells; fresh vs frozen HSPCs, 7 days STFIA media pulsed with PGE2",Sustained and conserved
same,increase in the percentage of PD-L1+CD34+ cells,PD-L1 on CD34+ cells; healthy control patients,~2 fold

# — US11879137B2, “Treatment of type 1 diabetes and autoimmune diseases or disorders” (THE CHILDREN'S MEDICAL CENTER CORPORATION, priority 2017, dated 2024)
